System: human mononuclear cells
Experiment: Production of lipoxin A4 in human mononuclear cells in vitro stimulated with PMA/A23187 plus DHA/EPA, quantified by LC-MS
Type: cell-based
Details: coriander oil 0.25 mg/ml, taurine 3.1 mg/ml; 30 minutes pre-incubation, then 2 hours of stimulation with phorbol myristate 0.05 μM, calcium ionophore 1 μM, DHA and EPA 1 μg/mL; cell supernatant
Procedure: Mononuclear blood cells are cultured under 5% CO2 and at 37° C. in a serum-free medium for macrophages (SFM Macrophage; Invitrogen 12065074) for 24 hours. […] The inflammatory response was then triggered in the presence of phorbol myristate (0.05 μM) and calcium ionophore (1μM) and a lipid substrate mixture composed of docosahexaenoic acid (DHA−1 μg/mL) and eicosapentaenoic acid (EPA-1μg/mL). The supernatants were then collected after 2 hours of stimulation and frozen at −80° C. before preparation for analysis by mass spectrometry. Experimental triplicates (three wells) were prepared per experimental condition. Into each culture plate was placed a control corresponding to cells stimulated with the PMA/A23187 mixture and/or with addition of the equimolar mixture of fatty acids. The frozen supernatants were concentrated by solid-phase extraction (SPE) and taken up in methanol before spectrometric analysis. The analytical method used consists in separating the various analytes by high-pressure liquid chromatography as a function of their retention time and in quantifying them by mass spectrometry. The analyses were performed using an LC 1290 Infinity chain (Agilent Technologies) coupled to a 6460 Triple Quad LC/MS mass spectrometer (Agilent Technologies) equipped with an electrospray ionization source (Jet stream technology) operating in negative mode. […]

NCCS(=O)(=O)O [Taurine]
Level of lipoxin A4 production (% modulation relative to the control): +38%

Source: US20160074297A1, “COMBINATION OF PETROSELINIC ACID AND TAURINE FOR ORAL ADMINISTRATION FOR HAIR AGING CONTROL” (NUTRICOS TECHNOLOGIES, priority 2013, published 2016)
